In this experiment the test system is HeLa cells. Briefly: CellTiter-Glo luminescent cell viability (cytotoxicity) assay. In kind it is cell-based. The following applies: 10 μM test compound, inhibition of luminescence compared to control cells; for Activity (PCT_INHIB @ 10 μM): 48 hours; for inhibition at 10 µM: Homo sapiens, HeLa, 48 h, read-out: Activity (PCT_INHIB @ 10 μM). How it is done:
Cytotoxicity was assessed using Promega's CellTiter-Glo® luminescent cell viability assay (Promega Corporation, Madison, Wis., USA) as described in Promega Technical Bulletin TB288, revised August 2008. The assay was performed in HeLa cells at a maximum concentration tested of 10 μM of test compound. This assay measures the amount of adenosine triphosphate (ATP) present as a way of quantifying the presence and degree of metabolic activity in cell cultures.
Viable Hela cells were plated at a density of 3000 cells/well in 96 wells in black, clear bottom plates. Cells were allowed to attach to the plate by incubating overnight at 37° C. Test compounds were diluted in DMSO then further diluted in 10% FBS media. Media was removed from the cell plates and 50 μL of the solution was added to each well manually with the exception of the control well, which contained the same volume of 10% FBS media which includes 1% DMSO. Cells were incubated in the presence of compound undisturbed for 48 hours at 37° C. After the 48 hour compound exposure, 50 μL of the pCellTiter Glo® reagent was added. The cell plates were agitated on a shaker for 2 minutes to help lyse the cells. The plate was covered and read for luminescence.
Percent inhibition was calculated as follows: PCT_INHIB=100*[(U−T)/U] Where U represents the Luminescence of wells containing untreated cells and
T represents the Luminescence of wells containing compound-treated cells
For orientation: In ATP-based viability assays light output follows the ATP content of the culture.

Molecules are shown by their SMILES. Structures can show the parent of a compound that is named as a salt.

With `COc1ccc(Cl)c(CN(Cc2cccc(CN3C(C(=O)NC45CC6CC(CC(C6)C4)C5)CCS3(=O)=O)c2)[C@H](CN(C)C)CC(C)(C)C)c1F` (single isomer, unassigned; epimer 1) [Example 33], the “Activity (PCT_INHIB @ 10 μM)” value came out at 96%.

With `COc1ccc(Cl)c(CN(Cc2cccc(CN3C(C(=O)NC45CC6CC(CC(C6)C4)C5)CCS3(=O)=O)c2)[C@H](CN(C)C)CC(C)(C)C)c1F` (single isomer, unassigned; epimer 2) [Example 34], the “Activity (PCT_INHIB @ 10 μM)” value is on record as 97%.

For `C[C@@H]1[C@@H](NC(=O)C2CCS(=O)(=O)N2Cc2cccc(CN(Cc3cc(Cl)ccc3O)[C@H](CN(C)C)CC(C)(C)C)c2)C[C@H]2C[C@@H]1C2(C)C` (stereo partly drawn) [Example 1, 2-(3-{[(5-Chloro-2-hydroxy-benzyl)-((S)-1-dimethylaminomethyl-3,3-dimethyl-butyl)-amino]-methyl}-benzyl)-1,1-dioxo-1λ^6-isothiazolidine-3-carboxylic acid((1S,2S,3S,5R)-2,6,6-trimethyl-bicyclo[3.1.1]hept-3-yl)-amide], the inhibition at 10 µM is 96%.

As for `C[C@@H]1[C@@H](NC(=O)C2CCS(=O)(=O)N2Cc2cccc(CN(Cc3ccccc3I)[C@H](CN(C)C)CC(C)(C)C)c2)C[C@H]2C[C@@H]1C2(C)C` (stereo partly drawn) [Example 2, 2-(3-{[((S)-1-Dimethylaminomethyl-3,3-dimethyl-butyl)-(2-iodo-benzyl)-amino]-methyl}-benzyl)-1,1-dioxo-1λ^6-isothiazolidine-3-carboxylic acid((1S,2S,3S,5R)-2,6,6-trimethyl-bicyclo[3.1.1]hept-3-yl)-amide trifluoroacetate salt], the inhibition at 10 µM worked out at 50%.

Take `CCOc1ccccc1CN(Cc1cccc(CN2C(C(=O)N[C@H]3C[C@H]4C[C@@H]([C@@H]3C)C4(C)C)CCS2(=O)=O)c1)[C@H](CN(C)C)CC(C)(C)C` (stereo partly drawn) [Example 3, 2-(3-{[((S)-1-Dimethylaminomethyl-3,3-dimethyl-butyl)-(2-ethoxy-benzyl)-amino]methyl}-benzyl)-1,1-dioxo-1λ^6-isothiazolidine-3-carboxylic acid((1S,2S,3S,5R)-2,6,6-trimethyl-bicyclo[3.1.1]hept-3-yl)-amide trifluoroacetate salt]: the inhibition at 10 µM is 69%.

`COc1ccc(C(C)C)cc1CN(Cc1cccc(CN2C(C(=O)N[C@H]3C[C@H]4C[C@@H]([C@@H]3C)C4(C)C)CCS2(=O)=O)c1)[C@H](CN(C)C)CC(C)(C)C` (stereo partly drawn) [Example 4, 2-(3-{[((S)-1-Dimethylaminomethyl-3,3-dimethyl-butyl)-(5-isopropyl-2-methoxy-benzyl)-amino]-methyl}-benzyl)-1,1-1λ^6-isothiazolidine-3-carboxylic acid((1S,2S,3S,5R)-2,6,6-trimethyl-bicyclo[3.1.1]hept-3-yl)-amide trifluoroacetate salt]: the inhibition at 10 µM turned out to be 96%.

Turning to `C[C@@H]1[C@@H](NC(=O)C2CCS(=O)(=O)N2Cc2cccc(CN(Cc3ccccc3OC(F)F)[C@H](CN(C)C)CC(C)(C)C)c2)C[C@H]2C[C@@H]1C2(C)C` (stereo partly drawn) [Example 5, 2-(3-{[(2-Difluoromethoxy-benzyl)-((S)-1-dimethylaminomethyl-3,3-dimethyl-butyl)amino]-methyl}-benzyl)-1,1-dioxo-1λ^6-isothiazolidine-3-carboxylic acid((1S,2S,3S,5R)-2,6,6-trimethyl-bicyclo[3.1.1]hept-3-yl)-amide trifluoroacetate salt], the inhibition at 10 µM amounted to 87%.

With `C[C@@H]1[C@@H](NC(=O)C2CCS(=O)(=O)N2Cc2cccc(CN(Cc3ccccc3Oc3ccc(F)cc3)[C@H](CN(C)C)CC(C)(C)C)c2)C[C@H]2C[C@@H]1C2(C)C` (stereo partly drawn) [Example 6, 2-[3-({((S)-1-Dimethylaminomethyl-3,3-dimethyl-butyl)-[2-(4-fluoro-phenoxy)-benzyl]-amino}-methyl)-benzyl]-1,1-dioxo-1λ^6-isothiazolidine-3-carboxylic acid((1S,2S,3S,5R)-2,6,6-trimethyl-bicyclo[3.1.1]hept-3-yl)-amide trifluoroacetate salt], the inhibition at 10 µM came to 82%.

Consider `Cc1ccc(Oc2ccccc2CN(Cc2cccc(CN3C(C(=O)N[C@H]4C[C@H]5C[C@@H]([C@@H]4C)C5(C)C)CCS3(=O)=O)c2)[C@H](CN(C)C)CC(C)(C)C)cc1` (stereo partly drawn) [Example 7, 2-(3-{[((S)-1-Dimethylaminomethyl-3,3-dimethyl-butyl)-(2-p-tolyloxy-benzyl)-amino]-methyl}-benzyl)-1,1-dioxo-1λ^6-isothiazolidine-3-carboxylic acid((1S,2S,3S,5R)-2,6,6-trimethyl-bicyclo[3.1.1]hept-3-yl)-amide trifluoroacetate salt], for which the inhibition at 10 µM stood at 58%.

As to `C[C@@H]1[C@@H](NC(=O)C2CCS(=O)(=O)N2Cc2cccc(CN(Cc3ccccc3-c3ccc(F)cc3)[C@H](CN(C)C)CC(C)(C)C)c2)C[C@H]2C[C@@H]1C2(C)C` (stereo partly drawn) [Example 8, 2-(3-{[((S)-1-Dimethylaminomethyl-3,3-dimethyl-butyl)-(4′-fluoro-biphenyl-2 ylmethyl)-amino]-methyl}-benzyl)-1,1-dioxo-1λ^6-isothiazolidine-3-carboxylic acid((1S,2S,3S,5R)-2,6,6-trimethyl-bicyclo[3.1.1]hept-3-yl)-amide trifluoroacetate salt], the inhibition at 10 µM stood at 97%.

As to `Cc1ccc(CN(Cc2cccc(CN3C(C(=O)N[C@H]4C[C@H]5C[C@@H]([C@@H]4C)C5(C)C)CCS3(=O)=O)c2)[C@H](CN(C)C)CC(C)(C)C)c(O)c1` (stereo partly drawn) [Example 9, 2-(3-{[((S)-1-Dimethylaminomethyl-3,3-dimethyl-butyl)-(2-hydroxy-4-methylbenzyl)-amino]-methyl}-benzyl)-1,1-dioxo-1λ^6-isothiazolidine-3-carboxylic acid((1S,2S,3S,5R)-2,6,6-trimethyl-bicyclo[3.1.1]hept-3-yl)-amide trifluoroacetate salt], the inhibition at 10 µM is 96%.

On to `Cc1ccc(O)c(CN(Cc2cccc(CN3C(C(=O)N[C@H]4C[C@H]5C[C@@H]([C@@H]4C)C5(C)C)CCS3(=O)=O)c2)[C@H](CN(C)C)CC(C)(C)C)c1` (stereo partly drawn) [Example 10, 2-(3-{[((S)-1-Dimethylaminomethyl-3,3-dimethyl-butyl)-(2-hydroxy-5-methyl-benzyl)-amino]-methyl}-benzyl)-1,1-dioxo-1λ^6-isothiazolidine-3-carboxylic acid((1S,2S,3S,5R)-2,6,6-trimethyl-bicyclo[3.1.1]hept-3-yl)-amide trifluoroacetate salt], for which the inhibition at 10 µM turned out to be 96%.

As for `Cc1ccccc1-c1ccccc1CN(Cc1cccc(CN2C(C(=O)N[C@H]3C[C@H]4C[C@@H]([C@@H]3C)C4(C)C)CCS2(=O)=O)c1)[C@H](CN(C)C)CC(C)(C)C` (stereo partly drawn) [Example 11, 2-(3-{[((S)-1-Dimethylaminomethyl-3,3-dimethyl-butyl)-(2′-methyl-biphenyl-2 ylmethyl)-amino]-methyl}-benzyl)-1,1-dioxo-1λ^6-isothiazolidine-3-carboxylic acid((1S,2S,3S,5R)-2,6,6-trimethyl-bicyclo[3.1.1]hept-3-yl)-amide trifluoroacetate salt], the inhibition at 10 µM stood at 97%.

On to `C[C@@H]1[C@@H](NC(=O)C2CCS(=O)(=O)N2Cc2cccc(CN(Cc3c(F)cccc3Oc3ccccc3)[C@H](CN(C)C)CC(C)(C)C)c2)C[C@H]2C[C@@H]1C2(C)C` (stereo partly drawn) [Example 12, 2-(3-{[((S)-1-Dimethylaminomethyl-3,3-dimethyl-butyl)-(2-fluoro-6-phenoxy-benzyl)-amino]-methyl}-benzyl)-1,1-dioxo-1λ^6-isothiazolidine-3-carboxylic acid((1S,2S,3S,5R)-2,6,6-trimethyl-bicyclo[3.1.1]hept-3-yl)-amide trifluoroacetate salt], for which the inhibition at 10 µM turned out to be 96%.

In the case of `C[C@@H]1[C@@H](NC(=O)C2CCS(=O)(=O)N2Cc2cccc(CN(Cc3c(F)ccc(F)c3F)[C@H](CN(C)C)CC(C)(C)C)c2)C[C@H]2C[C@@H]1C2(C)C` (stereo partly drawn) [Example 13, 2-(3-{[((S)-1-Dimethylaminomethyl-3,3-dimethyl-butyl)-(2,3,6-trifluoro-benzyl)-amino]-methyl}-benzyl)-1,1-dioxo-1λ^6-isothiazolidine-3-carboxylic acid((1S,2S,3S,5R)-2,6,6-trimethyl-bicyclo[3.1.1]hept-3-yl)-amide trifluoroacetate salt], the inhibition at 10 µM was 93%.

`COc1ccc(Br)c(CN(Cc2cccc(CN3C(C(=O)N[C@H]4C[C@H]5C[C@@H]([C@@H]4C)C5(C)C)CCS3(=O)=O)c2)[C@H](CN(C)C)CC(C)(C)C)c1O` (stereo partly drawn) [Example 14, 2-(3-{[(6-Bromo-2-hydroxy-3-methoxy-benzyl)-((S)-1-dimethylaminomethyl-3,3-dimethyl-butyl)-amino]-methyl}-benzyl)-1,1-dioxo-1λ^6-isothiazolidine-3-carboxylic acid((1S,2S,3S,5R)-2,6,6-trimethyl-bicyclo[3.1.1]hept-3-yl)-amide trifluoroacetate salt]: the inhibition at 10 µM came to 75%.
